From ChEMBL document CHEMBL3580659, “One-pot multicomponent synthesis of indole incorporated thiazolylcoumarins and their antibacterial, anticancer and DNA cleavage studies” (2015)

Experiments:
Type in all cases: functional
U-251 [1] = assay: Cytotoxicity against human U251 cells assessed as cell growth level at 100 uM after 48 hrs by sulforhodamine B assay
SK-MEL-5 = assay: Cytotoxicity against human SK-MEL-5 cells assessed as cell growth level at 100 uM after 48 hrs by sulforhodamine B assay
OVCAR-5 = assay: Cytotoxicity against human OVCAR5 cells assessed as cell growth level at 100 uM after 48 hrs by sulforhodamine B assay
COLO 205 [2] = assay: Cytotoxicity against human COLO205 cells assessed as cell growth level at 10 nM after 48 hrs by sulforhodamine B assay
MDA-MB-435 [3] = assay: Cytotoxicity against human MDA-MB-435 cells assessed as cell growth level at 10 nM after 48 hrs by sulforhodamine B assay
IGROV-1 = assay: Cytotoxicity against human IGROV1 cells assessed as cell growth level at 10 nM after 48 hrs by sulforhodamine B assay
OVCAR-3 [4] = assay: Cytotoxicity against human OVCAR3 cells assessed as cell growth level at 10 nM after 48 hrs by sulforhodamine B assay
MDA-MB-468 = assay: Cytotoxicity against human MDA-MB-468 cells assessed as cell growth level at 10 nM after 48 hrs by sulforhodamine B assay
NCI-H226 = assay: Cytotoxicity against human NCI-H226 cells assessed as cell growth level at 100 nM after 48 hrs by sulforhodamine B assay
NCI-H460 = assay: Cytotoxicity against human NCI-H460 cells assessed as cell growth level at 100 nM after 48 hrs by sulforhodamine B assay
SF-295 [5] = assay: Cytotoxicity against human SF295 cells assessed as cell growth level at 100 nM after 48 hrs by sulforhodamine B assay
OVCAR-8 [6] = assay: Cytotoxicity against human OVCAR8 cells assessed as cell growth level at 100 nM after 48 hrs by sulforhodamine B assay
786-0 = assay: Cytotoxicity against human 786-0 cells assessed as cell growth level at 100 nM after 48 hrs by sulforhodamine B assay
K562 = assay: Cytotoxicity against human K562 cells assessed as cell growth level at 10 uM after 48 hrs by sulforhodamine B assay
HOP-92 [7] = assay: Cytotoxicity against human HOP92 cells assessed as cell growth level at 10 uM after 48 hrs by sulforhodamine B assay
BT-549 = assay: Cytotoxicity against human BT549 cells assessed as cell growth level at 100 nM after 48 hrs by sulforhodamine B assay
HOP-92 [8] = assay: Cytotoxicity against human HOP92 cells assessed as cell growth level at 1 uM after 48 hrs by sulforhodamine B assay
HT-29 = assay: Cytotoxicity against human HT-29 cells assessed as cell growth level at 1 uM after 48 hrs by sulforhodamine B assay
COLO 205 [9] = assay: Cytotoxicity against human COLO205 cells assessed as cell growth level at 10 uM after 48 hrs by sulforhodamine B assay
HCT-116 = assay: Cytotoxicity against human HCT116 cells assessed as cell growth level at 10 uM after 48 hrs by sulforhodamine B assay
SW-620 [10] = assay: Cytotoxicity against human SW620 cells assessed as cell growth level at 10 uM after 48 hrs by sulforhodamine B assay
U-251 [11] = assay: Cytotoxicity against human U251 cells assessed as cell growth level at 10 uM after 48 hrs by sulforhodamine B assay
OVCAR-8 [12] = assay: Cytotoxicity against human OVCAR8 cells assessed as cell growth level at 10 uM after 48 hrs by sulforhodamine B assay
[13] = Cytotoxicity against human NCI-ADR-RES cells assessed as cell growth level at 10 uM after 48 hrs by sulforhodamine B assay
RXF 393 = assay: Cytotoxicity against human RXF393 cells assessed as cell growth level at 10 uM after 48 hrs by sulforhodamine B assay
SW-620 [14] = assay: Cytotoxicity against human SW620 cells assessed as cell growth level at 1 uM after 48 hrs by sulforhodamine B assay
SF-295 [15] = assay: Cytotoxicity against human SF295 cells assessed as cell growth level at 1 uM after 48 hrs by sulforhodamine B assay
UACC-62 = assay: Cytotoxicity against human UACC62 cells assessed as cell growth level at 1 uM after 48 hrs by sulforhodamine B assay
CAKI-1 = assay: Cytotoxicity against human CAKI-1 cells assessed as cell growth level at 1 uM after 48 hrs by sulforhodamine B assay
DU-145 = assay: Cytotoxicity against human DU145 cells assessed as cell growth level at 1 uM after 48 hrs by sulforhodamine B assay
T47D = assay: Cytotoxicity against human T47D cells assessed as cell growth level at 10 uM after 48 hrs by sulforhodamine B assay
HL-60(TB) = assay: Cytotoxicity against human HL-60(TB) cells after 48 hrs by sulforhodamine B assay; settings: HL-60, 48 h
HCT-15 = assay: Cytotoxicity against human HCT15 cells after 48 hrs by sulforhodamine B assay; settings: HCT-15, 48 h
KM12 = assay: Cytotoxicity against human KM12 cells after 48 hrs by sulforhodamine B assay; settings: KM12, 48 h
NCI-H522 = assay: Cytotoxicity against human NCI-H522 cells assessed as cell growth level at 100 uM after 48 hrs by sulforhodamine B assay
SW-620 [16] = assay: Cytotoxicity against human SW620 cells assessed as cell growth level at 100 uM after 48 hrs by sulforhodamine B assay
SF-539 = assay: Cytotoxicity against human SF539 cells assessed as cell growth level at 100 uM after 48 hrs by sulforhodamine B assay
SNB-19 = assay: Cytotoxicity against human SNB19 cells assessed as cell growth level at 100 uM after 48 hrs by sulforhodamine B assay
MDA-MB-435 [17] = assay: Cytotoxicity against human MDA-MB-435 cells after 48 hrs by sulforhodamine B assay; settings: MDA-MB-435, 48 h
OVCAR-3 [18] = assay: Cytotoxicity against human OVCAR3 cells after 48 hrs by sulforhodamine B assay; settings: OVCAR-3, 48 h
[19] = read-out: LC50 (the source's name)
[20] = read-out: pLC50 (the source's name) (converted)

O=c1oc2ccccc2cc1-c1csc(N/N=C/c2c[nH]c3ccccc23)n1
Activity (U-251 [1]): -89%
Activity (SK-MEL-5): -46%
Activity (OVCAR-5): -36%
Activity (COLO 205 [2]): 110%
Activity (MDA-MB-435 [3]): 92%
Activity (IGROV-1): 108%
Activity (OVCAR-3 [4]): 99%
Activity (MDA-MB-468): 94%
Activity (NCI-H226): 104%
Activity (NCI-H460): 93%
Activity (SF-295 [5]): 97%
Activity (OVCAR-8 [6]): 107%
Activity (786-0): 82%
Activity (K562): 0.99%
Activity (HOP-92 [7]): -14.45%
Activity (BT-549): 88%
Activity (HOP-92 [8]): 87%
Activity (HT-29): 89%
Activity (COLO 205 [9]): 28.15%
Activity (HCT-116): 7.48%
Activity (SW-620 [10]): 17.5%
Activity (U-251 [11]): -6.38%
Activity (OVCAR-8 [12]): 2.99%
Activity [13]: 24.9%
Activity (RXF 393): 25.19%
Activity (SW-620 [14]): 72%
Activity (SF-295 [15]): 80%
Activity (UACC-62): 69%
Activity (CAKI-1): 88%
Activity (DU-145): 80%
Activity (T47D): 4.07%
GI50 (HL-60(TB); read-out: GI50): 0.45 µM
CC50 (HL-60(TB); [19]): > 100 µM
TGI (HL-60(TB); read-out: TGI): 7.64 µM
GI50 (HL-60(TB); read-out: pGI50 (converted)): 0.457 µM
CC50 (HL-60(TB); [20]): > 100 µM
TGI (HL-60(TB); read-out: pTGI (converted)): 7.59 µM
GI50 (HCT-15; read-out: GI50): 1.61 µM
CC50 (HCT-15; [19]): 7.46 µM
TGI (HCT-15; read-out: TGI): 3.47 µM
GI50 (HCT-15; read-out: pGI50 (converted)): 1.62 µM
CC50 (HCT-15; [20]): 7.41 µM
TGI (HCT-15; read-out: pTGI (converted)): 3.47 µM
GI50 (KM12; read-out: GI50): 1.86 µM
CC50 (KM12; [19]): 9.22 µM
TGI (KM12; read-out: TGI): 4.14 µM
GI50 (KM12; read-out: pGI50 (converted)): 1.86 µM
CC50 (KM12; [20]): 9.12 µM
TGI (KM12; read-out: pTGI (converted)): 4.17 µM
Activity (NCI-H522): -80%
Activity (SW-620 [16]): -7%
Activity (SF-539): -4%
Activity (SNB-19): -44%
GI50 (MDA-MB-435 [17]; read-out: GI50): 2.1 µM
CC50 (MDA-MB-435 [17]; [19]): 25.2 µM
TGI (MDA-MB-435 [17]; read-out: TGI): 5.47 µM
GI50 (MDA-MB-435 [17]; read-out: pGI50 (converted)): 2.09 µM
CC50 (MDA-MB-435 [17]; [20]): 25.1 µM
TGI (MDA-MB-435 [17]; read-out: pTGI (converted)): 5.5 µM
GI50 (OVCAR-3 [18]; read-out: GI50): 1.16 µM
CC50 (OVCAR-3 [18]; [19]): 7.31 µM
TGI (OVCAR-3 [18]; read-out: TGI): 2.91 µM
GI50 (OVCAR-3 [18]; read-out: pGI50 (converted)): 1.15 µM
CC50 (OVCAR-3 [18]; [20]): 7.24 µM
TGI (OVCAR-3 [18]; read-out: pTGI (converted)): 2.88 µM
